In patent publication US20070123718A1, “Novel 4-amino-2(5H)-furanones” (Aston University, priority 2003, published 2007):
Read-outs that look alike come from different tables or passages of the source.

Key:
[1] = target: T1, CCKB receptor (guinea pig cerebral cortex) (Cavia porcellus, UniProt H0VZC5); assay: 125I-CCK-8 receptor binding assay, CCKB; conditions: guinea pig cerebral cortex membranes
T1 construct: CCKB (nM); other: guinea pig cerebral cortex membranes, 125I-Bolton-Hunter CCK 25 pM; Activity CCK-B [μM]; guinea pig cerebral cortex membranes
T1 sequence (H0VZC5 1-426): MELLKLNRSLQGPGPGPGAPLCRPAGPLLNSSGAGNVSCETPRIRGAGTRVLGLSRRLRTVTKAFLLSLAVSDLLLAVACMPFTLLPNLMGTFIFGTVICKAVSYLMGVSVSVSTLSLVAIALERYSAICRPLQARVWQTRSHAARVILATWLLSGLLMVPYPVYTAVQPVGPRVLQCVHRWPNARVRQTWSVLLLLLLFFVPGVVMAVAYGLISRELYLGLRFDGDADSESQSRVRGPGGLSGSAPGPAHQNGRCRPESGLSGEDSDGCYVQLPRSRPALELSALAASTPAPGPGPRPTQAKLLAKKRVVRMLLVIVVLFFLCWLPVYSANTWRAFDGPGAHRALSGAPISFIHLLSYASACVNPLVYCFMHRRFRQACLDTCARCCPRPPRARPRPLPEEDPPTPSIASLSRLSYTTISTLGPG
Procedure: (§1) CCKA and CCKB receptor binding assays were performed, by using guinea pig cerebral cortex (CCKB) or rat pancreas (CCKA). Male guinea pig brain tissues were prepared according to the modified method described by Saita et al, [(1994), Characterization of YM022: its CCKB/gastrin receptor binding profile and antagonism to CCK-8-induced Ca2+mobilization., Eur. J. Pharmacol.,269, 249-254]. Pancreatic membranes were prepared in a similar way but by Charpentier et al, [(1988), Cyclic cholecystokinin analogues with high selectivity for central receptors., Proc Natl Acad Sci USA, 85, 1968-1972]. The […] CCK binding assay: Tissues were homogenized in ice cold sucrose (0.32 M, 25 ml) for 15 strokes at 500 rpm and centrifuged at 13000 rpm for 10 mins. The supernatant was re-centrifuged at 13000 rpm for 20 mins. The resulting pellet was re-dispersed to the required volume of buffer at 500 rpm and stored in aliquots at […].
(§2) Binding was achieved using a radioligand ^125I-Bolton-Hunter labeled CCK, NEN at 25 pM. The samples were incubated {with membranes (0.1 mg/ml) } in 20 mM Hepes, 1 mM EGTA, 5 mM MgCl2, 150 mm NaCl, 0.25 mg/ml bacitracin at pH 6.5 for 2 hrs at RT and then […] by centrifugation at 1100 rpm for 5 minutes. The membrane pellets were washed twice with water and the bound radioactivity was measured in a Packard Cobra Auto-gamma counter (B5005). All binding assays were carried out with L-363, 260 as an internal non-specific standard. Controls (no compound) were also added. All samples were made in duplicate and repeated twice. All compounds were initially screened for percentage inhibition at 20 μm. Samples showing an average inhibition of <35% were diluted to 2 μm and re-screened and if active diluted again.

[2] = system: CCKB receptor (guinea pig cerebral cortex); assay: 125I-CCK-8 receptor binding assay, CCKB; conditions: ratio CCKB/CCKA
Procedure: as §1, §2

[3] = target: T2, CCKA receptor (rat pancreas) (Rattus norvegicus, UniProt P30551); assay: 125I-CCK-8 receptor binding assay, CCKA; conditions: rat pancreas membranes, 125I-Bolton-Hunter CCK 25 pM
T2 construct: Pancreatic membranes were prepared in a similar way but by Charpentier et al; from tissue; host or cells: rat pancreas membranes
T2 sequence (P30551 1-444): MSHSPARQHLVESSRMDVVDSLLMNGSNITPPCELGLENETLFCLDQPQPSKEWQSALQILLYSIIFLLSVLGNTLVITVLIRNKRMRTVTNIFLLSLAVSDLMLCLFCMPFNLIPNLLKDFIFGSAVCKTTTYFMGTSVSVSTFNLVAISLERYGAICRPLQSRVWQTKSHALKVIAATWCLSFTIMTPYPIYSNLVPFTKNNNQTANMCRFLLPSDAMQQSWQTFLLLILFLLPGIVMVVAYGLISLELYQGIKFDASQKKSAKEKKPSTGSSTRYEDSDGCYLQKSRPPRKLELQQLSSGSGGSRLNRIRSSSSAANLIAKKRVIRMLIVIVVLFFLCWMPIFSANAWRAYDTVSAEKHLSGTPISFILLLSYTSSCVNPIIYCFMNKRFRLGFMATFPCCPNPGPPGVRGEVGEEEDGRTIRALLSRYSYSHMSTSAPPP
Procedure: as §1, §2

[4] = Table 2, read-out: Activity CCK-B [μM] (IC50)
[5] = 125I-Bolton-Hunter CCK 25 pM, read-out: CCKB

Compound	IC50 [1, 4]	other results
CC1CCC(C(C)C)C(OC2OC(=O)C(Cl)=C2N(C)Cc2ccccc2)C1 (stereo not drawn) [Example 1, 4-[Benzyl(metliyl)arino]-3-chloro-5-[(2-isopropyl-5-methlylcyclohexyl)oxo] furan-2(5H)-one]	0.31 µM	
CC(=O)OC1OC(=O)C(Cl)=C1N1CCc2ccccc21 (stereo not drawn) [Example 2, 4-ClIforo-3-(2,3-dihydro-1H-indol-1-yl)-5-oxo-2,5-dihydrofuran-2-yl acetate]	> 20 µM	
C#CCOC1OC(=O)C(Cl)=C1N1CC(C)OC(C)C1 (stereo not drawn) [Example 3, 3-Chloro-4-(2,6-dimethylmorpholin-4-yl)-5-(prop-2-ynyloxy)furan-2(5H)-one]	12.6 µM	
C#CCOC1OC(=O)C(Cl)=C1NCc1ccccc1 (stereo not drawn) [Example 4, 4-(Benzylamino)-3-chloro-5-(prop-2-ynyloxy)furan-2(5H)-one]		IC50 [1, 5]: 0.014 µM; Selectivity [2]: 1.5; IC50 [3]: 9 nM
C#CCOC1OC(=O)C(Cl)=C1N1CCN(Cc2ccccc2)CC1 (stereo not drawn) [Example 5, 4-(4-Benzylpiperazin-1-yl) 3-chloro-5-(prop-2-ynyloxy)furan-2(5H)-one]	> 20 µM	
C#CCOC1OC(=O)C(Cl)=C1N(C(C)C)C1CCCCC1 (stereo not drawn) [Example 6, 3-Chloro-4-[cyclohexyl(isopropyl)amino]-5-(prop-2-ynyloxy)furan-2(5H)-one]		IC50 [1, 5]: 0.008 µM; Selectivity [2]: 1.3; IC50 [3]: 6 nM
C=COC1OC(=O)C(Cl)=C1Nc1c(C)n(C)n(-c2ccccc2)c1=O (stereo not drawn) [Example 7, 3-Chloro-4-[(1,5-dimethyl-2-phenyl-1,3-dihydro-3H-pyrazol-3-one)amino]-5-(vinyloxy)furan-2(5H)-one]	3.3 µM	
O=C1OC(Cl)C(Nc2ccccc2)=C1Cl (stereo not drawn) [Example 8, 4-Anilino-3,5-dichlorofuran-2(5H)-one]	16 µM	
CC(C)OC1OC(=O)C(Cl)=C1N1CCc2ccccc21 (stereo not drawn) [Example 9, 3-Chloro-4-(2,3-dihydro-1H-indol-1-yl)-5-isopropoxy-2(5H)-one]	2.5 µM	
CC(C)OC1OC(=O)C(Cl)=C1N(C)Cc1ccccc1 (stereo not drawn) [Example 10, 4-[Benzyl(methyl)amino]-3-chloro-5-isopropoxyfuran-2(5H)-one]	12 µM	
CC(C)OC1OC(=O)C(Cl)=C1NCc1ccccc1Cl (stereo not drawn) [Example 11, 3-Chloro-4-[(2-chlorobenzyl)amino]-5-isopropoxy-4-2(SH)-oue]	0.95 µM	
CC(C)OC1OC(=O)C(Cl)=C1N(Cc1ccccc1)Cc1ccccc1 (stereo not drawn) [Example 12, 3-Chloro-4-(dibenzylamino)-5-isopropoxyfuran-2(5H)-one]	17 µM	
CC(C)OC1OC(=O)C(Cl)=C1NCCc1ccccc1 (stereo not drawn) [Example 13, 3-Chloro-5-isopropoxy-4-(phenethylamine)furan-2(5H)-one]	1.1 µM	
COC1OC(=O)C(Cl)=C1Nc1c(C)n(C)n(-c2ccccc2)c1=O (stereo not drawn) [Example 14]	18 µM	
CCCCCCNC1=C(Cl)C(=O)OC1OC (stereo not drawn) [Example 15, 3-Chloro-4-(hexylamino)-5-methoxyfuran-2(5H)-one]		IC50 [1, 5]: 0.012 µM; Selectivity [2]: 1.5; IC50 [3]: 8 nM
CCN(C1=C(Cl)C(=O)OC1CC(=O)c1ccc(Cl)cc1)c1cccc(C)c1 (stereo not drawn) [Example 16, 3-Chloro-5-[2-(4-chlorophenyl)-2-oxoethyl]-4-(ethyl-3-methylanilino) furan-2(5H)-one]		IC50 [1, 5]: 0.019 µM; Selectivity [2]: 2.3; IC50 [3]: 8 nM

Compound	IC50 [1, 4]	other results
CC(C)CNC1=C(Cl)C(=O)OC1c1ccccc1 (stereo not drawn) [Example 17, 3-Chloro-4-(isobutylamino)-5-phenyl furan-2(5H)-one]		IC50 [1, 5]: 0.011 µM; Selectivity [2]: 1.6; IC50 [3]: 7 nM
CC1CCC(C(C)C)C(OC2OC(=O)C(Cl)=C2N2CCCC2)C1 (stereo not drawn) [Example A1B9]	2.2 µM	
C#CCOC1OC(=O)C(Cl)=C1N1C(C)CNCC1C (stereo not drawn) [Example A3B20]	11.2 µM	
CCCCCCCCCCCCCCCCOC1OC(=O)C(Cl)=C1n1cc(C)cc1C (stereo not drawn) [Example A7B23]	0.86 µM	
CCCCCCCCCCCCCCCCOC1OC(=O)C(Cl)=C1N1CCN(C(=O)OCC)CC1 (stereo not drawn) [Example A7B24]	12.4 µM	
COC1OC(=O)C(Cl)=C1N1CCc2ccccc21 (stereo not drawn) [Example A8B2]	1.5 µM	
COC1OC(=O)C(Cl)=C1n1cnc2ccccc21 (stereo not drawn) [Example A8B3]	2.3 µM	
COC1OC(=O)C(Cl)=C1Nc1cccc(C)c1 (stereo not drawn) [Example A8B4]	2.5 µM	
CCC(C)NC1=C(Cl)C(=O)OC1OC (stereo not drawn) [Example A8B5]	1.2 µM	
COC1OC(=O)C(Cl)=C1N1CCN(c2ccccc2)CC1 (stereo not drawn) [Example A8B8]	14 µM	
CCCCCCCCCCCCNC1=C(Cl)C(=O)OC1OC (stereo not drawn) [Example A8B10]	2.5 µM	
COC1OC(=O)C(Cl)=C1N1CCC(c2ccccc2)CC1 (stereo not drawn) [Example A8B11]	3 µM	
COC1OC(=O)C(Cl)=C1N1CCN(Cc2ccccc2)CC1 (stereo not drawn) [Example A8B16]	16 µM	
COC1OC(=O)C(Cl)=C1NCCCN1CCOCC1 (stereo not drawn) [Example A8B17]	15 µM	
COC1OC(=O)C(Cl)=C1NC1CCC(CCCc2ccccc2)CC1 (stereo not drawn) [Example A8B25]	16 µM	
COC1OC(=O)C(Cl)=C1n1ccc(C)n1 (stereo not drawn) [Example A8B26]	11 µM	
